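Where inhibition never reached the appropriate level, the endpoint shown equals the highest concentration tested. Otherwise, values were interpolated linearly from a five-concentration, 48-hour dose response in 96-well plates. At the GI50, growth is halved.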 The source made the active and inactive calls. Rule as the data show it: active = GI50 up to about 1.1 µM and inactive = higher.
Columns and labels:
Test in all cases: NCI anticancer screen, dose series, 48 h
UACC-257 = test system: UACC-257
HT-29 = test system: HT-29
786-0 = test system: 786-0
CAKI-1 = test system: CAKI-1
UACC-62 = test system: UACC-62
MDA-MB-231 = test system: MDA-MB-231
HOP-92 = test system: HOP-92
SK-OV-3 = test system: SK-OV-3
RPMI-8226 = test system: RPMI-8226
SF-268 = test system: SF-268
ACHN = test system: ACHN
HCT-15 = test system: HCT-15
RXF 393 = test system: RXF 393
MDA-MB-435 = test system: MDA-MB-435
T47D = test system: T47D
Hs-578T = test system: Hs-578T
SF-295 = test system: SF-295
K562 = test system: K562
SF-539 = test system: SF-539
MOLT-4 = test system: MOLT-4

Row | Compound | GI50 (UACC-257) | GI50 (HT-29) | GI50 (786-0) | GI50 (CAKI-1) | GI50 (UACC-62) | GI50 (MDA-MB-231) | GI50 (HOP-92) | GI50 (SK-OV-3) | GI50 (RPMI-8226) | GI50 (SF-268) | GI50 (ACHN) | GI50 (HCT-15) | GI50 (RXF 393) | GI50 (MDA-MB-435) | GI50 (T47D) | GI50 (Hs-578T) | GI50 (SF-295) | GI50 (K562) | GI50 (SF-539) | GI50 (MOLT-4)
1 | NCCNc1ncnc2ccc(Cl)cc12 | 36 µM (inactive) | 66.8 µM (inactive) | > 100 µM (inactive) | > 100 µM (inactive) | 93.5 µM (inactive) | 93.1 µM (inactive) | 93.5 µM (inactive) | > 100 µM (inactive) | 96.2 µM (inactive) | 81.1 µM (inactive) | 66.4 µM (inactive) | > 100 µM | > 100 µM (inactive) | > 100 µM (inactive) | > 100 µM (inactive) | > 100 µM (inactive) | > 100 µM (inactive) | > 100 µM (inactive) |  | 
2 | CC1C2(C)OC(=N)C(C#N)(C(c3ccccc3)O2)C1(C#N)C#N (configuration not stated) | 25.2 µM (inactive) | 18.1 µM (inactive) | 21.2 µM (inactive) | 13.7 µM (inactive) | 24.4 µM (inactive) | 16.9 µM (inactive) | 12.6 µM (inactive) | > 100 µM (inactive) |  | 25.5 µM (inactive) | 38.1 µM (inactive) | 10.9 µM | 30.3 µM (inactive) | 33.3 µM (inactive) | 20 µM (inactive) | 24.6 µM (inactive) | 86.5 µM (inactive) | 25.1 µM (inactive) | 20.3 µM (inactive) | 25.4 µM (inactive)
3 | C[C@@H](NC(=O)Nc1cccc(C(=O)Nc2cc(C(C)(C)C)ccc2C(=O)O)n1)c1ccccc1 |  | 35.5 µM (inactive) | 37.5 µM (inactive) | 82.2 µM (inactive) | 19.7 µM (inactive) | 23.4 µM (inactive) |  | 43.8 µM (inactive) | 41.8 µM (inactive) | 46.8 µM (inactive) | 35.2 µM (inactive) | 44.2 µM | 21.5 µM (inactive) | 37.3 µM (inactive) | 46 µM (inactive) | 40.4 µM (inactive) | 25.2 µM (inactive) | 42.5 µM (inactive) |  | 38 µM (inactive)
4 | Cc1ccc(C(=O)Oc2ccc(/C=C3\CCC/C(=C\c4ccc(OC(=O)c5ccc(C)cc5)cc4)C3=O)cc2)cc1 | > 100 µM (inactive) | > 100 µM (inactive) | > 100 µM (inactive) | > 100 µM (inactive) | > 100 µM (inactive) | > 100 µM (inactive) | > 100 µM (inactive) |  | > 100 µM (inactive) | > 100 µM (inactive) | > 100 µM (inactive) | > 100 µM |  | > 100 µM (inactive) | > 100 µM (inactive) | > 100 µM (inactive) | > 100 µM (inactive) |  | > 100 µM (inactive) | > 100 µM (inactive)
5 | CCN1CC(C)Cn2c(=O)[nH]c3cc(Br)cc1c32 (configuration not stated) | 76 µM (inactive) | 33.5 µM (inactive) | 22.6 µM (inactive) | 13.9 µM (inactive) | 6.97 µM (inactive) | 22.4 µM (inactive) |  | 27.7 µM (inactive) | 1.79 µM (inactive) | 10.9 µM (inactive) | 13.1 µM (inactive) | 14.6 µM | 6.9 µM (inactive) | 2.75 µM (inactive) | 18.5 µM (inactive) | 11 µM (inactive) | 21.1 µM (inactive) | 2.91 µM (inactive) | 29.8 µM (inactive) | 3.05 µM (inactive)
6 | Cn1c(=O)n2c(=O)n(C)c(=O)n2c1=O | > 100 µM (inactive) | > 100 µM (inactive) | > 100 µM (inactive) | > 100 µM (inactive) | > 100 µM (inactive) | > 100 µM (inactive) |  | > 100 µM (inactive) | > 100 µM (inactive) | > 100 µM (inactive) |  | > 100 µM | > 100 µM (inactive) | > 100 µM (inactive) | > 100 µM (inactive) | > 100 µM (inactive) |  | > 100 µM (inactive) | > 100 µM (inactive) | > 100 µM (inactive)
7 | COc1ccc(CC/N=C2\OCc3ccccc32)cc1OC | > 100 µM (inactive) | 32.1 µM (inactive) | 45.3 µM (inactive) | 62.4 µM (inactive) | 29.2 µM (inactive) | 61.8 µM (inactive) | 31.2 µM (inactive) | 30.5 µM (inactive) |  |  | 52.5 µM (inactive) | 38.8 µM |  | 43.2 µM (inactive) | 27.5 µM (inactive) | 67 µM (inactive) | 33.3 µM (inactive) | 23.4 µM (inactive) | 20.7 µM (inactive) | 50.4 µM (inactive)
8 | CC/C(=N/O)c1ccc(Br)s1 | > 100 µM (inactive) | > 100 µM (inactive) | > 100 µM (inactive) | > 100 µM (inactive) | 84.1 µM (inactive) | > 100 µM (inactive) | 40.3 µM (inactive) | > 100 µM (inactive) |  | > 100 µM (inactive) | 92 µM (inactive) | > 100 µM | 70.3 µM (inactive) | > 100 µM (inactive) | 70 µM (inactive) | 95.1 µM (inactive) | > 100 µM (inactive) | > 100 µM (inactive) | 27.1 µM (inactive) | 44.7 µM (inactive)
9 | CSc1nc(SC)c2c(C)c(Br)[nH]c2n1 |  | > 100 µM (inactive) | > 100 µM (inactive) | > 100 µM (inactive) | > 100 µM (inactive) | > 100 µM (inactive) | > 100 µM (inactive) | > 100 µM (inactive) | > 100 µM (inactive) | > 100 µM (inactive) | > 100 µM (inactive) | > 100 µM | > 100 µM (inactive) | > 100 µM (inactive) | > 100 µM (inactive) | > 100 µM (inactive) | > 100 µM (inactive) |  | 54.6 µM (inactive) | > 100 µM (inactive)
10 | CCOC(=O)/C(=C\NC(=S)Nc1ccc(Cl)c(Cl)c1)C(=O)c1ccccc1 | 34 µM (inactive) | 33.1 µM (inactive) | 58.6 µM (inactive) | 12.9 µM (inactive) | 32.3 µM (inactive) | 25.9 µM (inactive) |  | 36.2 µM (inactive) | 5.12 µM (inactive) | 26.6 µM (inactive) | 18.2 µM (inactive) | 29.1 µM | 21.6 µM (inactive) | 17.7 µM (inactive) | 7.82 µM (inactive) | 2.11 µM (inactive) | 33.6 µM (inactive) | 10 µM (inactive) | 3.12 µM (inactive) | 19 µM (inactive)
11 | CN(C)/C=C1\CCc2ccc([N+](=O)[O-])cc2C1=O | 19.1 µM (inactive) | 24.3 µM (inactive) | 48.6 µM (inactive) | > 100 µM (inactive) | 24.5 µM (inactive) | 17.4 µM (inactive) |  | > 100 µM (inactive) | 27.4 µM (inactive) | > 100 µM (inactive) | > 100 µM (inactive) | 44 µM | > 100 µM (inactive) | 19.1 µM (inactive) | 26.7 µM (inactive) | > 100 µM (inactive) | > 100 µM (inactive) | 24.4 µM (inactive) |  | 25.1 µM (inactive)
12 | C=CC(=C)CCC(Br)C(C)(C)Cl (configuration not stated) | > 100 µM (inactive) | > 100 µM (inactive) | > 100 µM (inactive) |  | > 100 µM (inactive) | > 100 µM (inactive) | > 100 µM (inactive) | > 100 µM (inactive) | > 100 µM (inactive) | > 100 µM (inactive) | > 100 µM (inactive) | > 100 µM | > 100 µM (inactive) | > 100 µM (inactive) | > 100 µM (inactive) | > 100 µM (inactive) | > 100 µM (inactive) | > 100 µM (inactive) | > 100 µM (inactive) | 85.1 µM (inactive)
13 | NC(=O)SCC(=O)Nc1ccc2cccc3c2c1CC3 | 21.1 µM (inactive) | 29.7 µM (inactive) | 18.9 µM (inactive) | 42.1 µM (inactive) | 13.7 µM (inactive) | 6.76 µM (inactive) | 0.596 µM (active) |  | 20.9 µM (inactive) | 15.3 µM (inactive) | 22.8 µM (inactive) | 16.6 µM | 26 µM (inactive) | 17.4 µM (inactive) | 21.9 µM (inactive) | 47.6 µM (inactive) | 21.1 µM (inactive) | 12.8 µM (inactive) | 15.1 µM (inactive) | 19.8 µM (inactive)
14 | Oc1[nH]c(Nc2ccc(F)c(Cl)c2)nc2ncnc1-2 | > 100 µM (inactive) | > 100 µM (inactive) | 82 µM (inactive) | > 100 µM (inactive) | > 100 µM (inactive) | > 100 µM (inactive) | > 100 µM (inactive) | > 100 µM (inactive) | > 100 µM (inactive) | > 100 µM (inactive) | > 100 µM (inactive) | > 100 µM |  | > 100 µM (inactive) | > 100 µM (inactive) | 29.6 µM (inactive) | > 100 µM (inactive) |  | > 100 µM (inactive) | 7.29 µM (inactive)
15 | NS(=O)(=O)c1ccc(/N=N/c2nc3nc(O)nc(O)c3[nH]2)cc1 | > 100 µM (inactive) | > 100 µM (inactive) | > 100 µM (inactive) | > 100 µM (inactive) | > 100 µM (inactive) | > 100 µM (inactive) | > 100 µM (inactive) | > 100 µM (inactive) | > 100 µM (inactive) | > 100 µM (inactive) | > 100 µM (inactive) | > 100 µM | > 100 µM (inactive) | > 100 µM (inactive) | > 100 µM (inactive) | > 100 µM (inactive) | > 100 µM (inactive) | > 100 µM (inactive) | > 100 µM (inactive) | 
16 | CCOC(=O)c1c(CN2CCCC2)n(-c2ccccc2)c2cc(Br)c(O)cc12 | 17.5 µM (inactive) | 5.86 µM (inactive) | 16.7 µM (inactive) | 17.1 µM (inactive) | 16.7 µM (inactive) | 17.8 µM (inactive) | 20 µM (inactive) | 25.8 µM (inactive) | 16.2 µM (inactive) | 19.9 µM (inactive) | 17.8 µM (inactive) | 20.8 µM | 12.4 µM (inactive) | 18 µM (inactive) | 20.7 µM (inactive) | 26.4 µM (inactive) | 16.6 µM (inactive) | 18.3 µM (inactive) |  | 17 µM (inactive)

— ChEMBL document CHEMBL1201862, “PubChem BioAssay data set” (2004)
